Assay results from a melting point compilation (Tetko et al.; mined from patent text by program, amines drawn as free bases though some values may be those of a salt).

First: COC(=O)c1cc(S(N)(=O)=O)c(OC)c2c1OCCO2
Second: COc1csc2ccc(C(=O)CC(=O)C3CC3)c(OC)c12
The melting point of the first is higher: 202 to 203 °C for the first, 77.5 to 80 °C for the second.

Compared with `COc1cc2cc(CO)c(CO)c(-c3ccnc(Nc4ccccc4C(CO)CCO)c3)c2cc1OC` (centres undefined), `CCOC(=O)c1c(CCBr)nc2cc(OC)c(OC)cc2c1-c1ccc(OC)c(OC)c1` is lower in melting point: 204 to 207 °C for the first, 132 to 133 °C for the second.

Compared with `Nc1cnc(-c2ccccc2)nc1C(=O)O`, `BrCc1cc(-c2ccccc2)cs1` is lower in melting point: 199 to 202 °C for the first, 87 to 88.5 °C for the second.

Compared with `N#Cc1cccc(NC(=O)c2cc(-c3ccc(F)cc3F)ccc2O)c1`, `Cc1c(-c2cccc(O)c2)sc(C#N)c1-c1ccc(O)cc1` is higher in melting point: 229 to 230 °C for the first, 240 to 241 °C for the second.

Compared with `CCOC(=O)c1csc(Nc2ccc(C)cn2)n1`, `CCCc1nc(Cl)c(C(=O)O)n1Cc1ccc(C2(C(=O)OCC)CC=CC2)s1` is lower in melting point: 198 to 200 °C for the first, 114 to 115 °C for the second.

First: O=C(NCCc1ccccc1)c1cc2c(cn1)[nH]c1ccccc12
Second: COc1cccc(C(=O)Nc2cc(C(=O)NCc3ccccc3)ccn2)c1
The melting point of the first is higher: 297 to 298 °C for the first, 95 to 96 °C for the second.

First: COc1cc(F)c(C2CNCc3ccsc32)cc1OC (centres undefined)
Second: COc1cc2oc(=O)c3c(c2cc1OC)CCN(Cc1ccc(Cl)cc1)C3
The melting point of the first is lower: 108 to 111 °C for the first, 173 to 175 °C for the second.

First: NNC(=S)NN=Cc1ccco1
Second: CC(C)(C)OC(=O)NN=Cc1ccccc1
The melting point of the first is higher: 186 to 187 °C for the first, 184 to 186 °C for the second.

Compared with `CC(C)C(NC(=O)C(C)(C)C)C(C)C`, `CN1CCC(=Cc2cc(C(C)(C)C)c(O)c(C(C)(C)C)c2)C1=O` is higher in melting point: 107 to 109 °C for the first, 185 °C for the second.

First: Cc1ccc(-c2nc(CCCCCCOC(C)(C)C#N)c(C)o2)cc1
Second: CCOC(=O)/C=C/C=C/c1ccc(CCc2nc(-c3ccccc3)oc2C)cc1
The melting point of the first is lower: 36 °C for the first, 82 to 83 °C for the second.

First: CC1=NC=CC(=O)C1OCc1ccccc1 (centres undefined)
Second: O=c1[nH]c2cc(Br)cc(Br)c2c(=O)n1Cc1ccccc1
The melting point of the first is lower: 162 to 163 °C for the first, over 280 °C for the second.

First: COc1cc2cc[nH]c2cc1OCCCCl
Second: CCOc1nc(C(F)(F)F)cc(=O)n1-c1cc(OC)c(Cl)cc1F
The melting point of the first is lower: 73 to 75 °C for the first, 117 to 119 °C for the second.

Compared with `COC(=O)[C@@H]1Cc2ccccc2N1C(=O)[C@H](CC(=O)O)NC(=O)C(F)(F)F`, `COC(=O)Cc1ccc(OCCNC(=O)C2Cc3ccccc3N2S(=O)(=O)c2ccc(-c3ccc(F)cc3)c(C(F)(F)F)c2)cc1` (centres undefined) is lower in melting point: 157 to 158 °C for the first, 60 °C for the second.

First: O=C(Nc1ccccc1S(=O)(=O)C1CCCC1)N[C@@H](Cc1ccc(NC(=O)c2c(Cl)cncc2Cl)cc1)C(=O)O
Second: O=C(Nc1ccc(Br)cc1)c1ccccc1NCc1ccncc1
The melting point of the first is higher: 233 °C for the first, 136 to 137 °C for the second.

First: CCCCCCCCC(SCCCCCC)C(=O)Nc1c(OC)cc(Cl)c2ncccc12 (centres undefined)
Second: CCCCCCNC(=O)c1cccc2c1C1(COc3cc4c(cc31)OCCO4)C(=O)N2C (centres undefined)
The melting point of the first is lower: 110 to 111 °C for the first, 172 to 173 °C for the second.

First: C=C(C)C(=O)OCCc1ccc(-c2ccc(OC(=O)C(=C)C)cc2)cc1
Second: O=C(Cc1cccnc1)c1ccc(Oc2ccccc2)cc1
The melting point of the first is higher: 108 °C for the first, 81 to 83 °C for the second.

Compared with `OC1CCc2oc3c(Cl)cc(Br)cc3c2C1` (single isomer, unassigned; (-)), `C=CCc1cc2c(C)c(Br)c(=O)oc2c(C)c1O` is lower in melting point: 236 to 240 °C for the first, 189 to 190 °C for the second.

First: CNC(=NC#N)NCCS(=O)Cc1nsc(NC(=N)N)n1 (centres undefined)
Second: CNC(=NC#N)NCCCn1cc(C2=C(c3cn(C)c4ccccc34)C(=O)NC2=O)c2ccccc21
The melting point of the first is lower: 185 to 186 °C for the first, 190 to 193 °C for the second.

Compared with `CC(C)(C)OC(=O)NCC1=CC(c2ccccc2)Cc2c1ccc(O)c2O` (centres undefined), `Cc1ccccc1CNC(=O)N1Cc2ccccc2-n2nc(C(C)(C)C)cc21` is higher in melting point: 175 to 177 °C for the first, 180 to 181 °C for the second.

`NNC(=O)Cc1cccc(OCCN2CCC(Cc3ccccc3)CC2)c1` and `CS(=O)(=O)Nc1cccc(OCCCN2CCC(OC(c3ccccc3)c3ccccc3)CC2)c1` cannot be ordered by melting point: 89 to 91 °C for the first, 90 to 95.5 °C for the second.

First: CC(C)c1cc(CCC(=O)O)n(Cc2ccc(Cl)cc2Cl)n1
Second: Cn1c(CC#N)cc(Cl)c1C(=O)c1ccc(Cl)cc1
The melting point of the first is lower: 105 to 108 °C for the first, 139 to 142 °C for the second.

First: CCN(CC)c1ccc(NC(C)=O)c(C)c1
Second: CCOC(=O)CN(Cc1cc(F)ccc1[N+](=O)[O-])C(=O)C(F)(F)F
The melting point of the first is higher: 114 to 115 °C for the first, 60 to 63 °C for the second.

First: CS(=O)(=O)Nc1cnc(NC(=O)[C@H](CC2CCCC2)c2ccc(S(C)(=O)=O)c(Cl)c2)cn1
Second: CCOC(=O)c1ccc(C(Cc2ccncc2)c2ccc(OC)c(OC3CCCC3)c2)cc1 (centres undefined)
The melting point of the first is lower: 108 to 110 °C for the first, 170 to 173 °C for the second.

First: COc1ccc(C2=NN(C3CCN(S(=O)(=O)c4ccc(Cl)cc4)CC3)C(=O)CC2)cc1OC
Second: COc1cc2c(cc1OC)CCCC(C(=O)N1CCN(C(=O)c3cc(OC)c(OC)c(OC)c3)C(C(=O)N(C)C)C1)=C2 (centres undefined)
The melting point of the first is higher: 185 to 186 °C for the first, 177 to 178 °C for the second.

First: COCC(=O)O[C@@H]1[C@@H](c2ccccc2)Nc2c(ccn3c(C)c(C)nc23)[C@@H]1OC
Second: CCCCNC(=S)N1CCC(c2nc(-c3ccc(-c4ccccc4)cc3)c[nH]2)CC1
The melting point of the first is lower: 73 to 75 °C for the first, 102 to 103 °C for the second.

Compared with `CC(=S)NCC1CN(c2ccc(-c3csc(Cn4cnnn4)n3)c(F)c2)C(=O)O1` (centres undefined), `O=C(CC(F)(F)F)NC[C@H]1CN(c2ccc3c(c2)CCCc2cn[nH]c2-3)C(=O)O1` is higher in melting point: 96 to 98 °C for the first, 243 to 245 °C for the second.

Compared with `O=C(NC(=O)C(c1ccccc1)c1ccccc1)OCC1CC1`, `CC(C)C[C@H](NC(=O)OCC1c2ccccc2-c2ccccc21)C(=O)N[C@H]1CCOC1=O` is higher in melting point: 108 °C for the first, 175 to 176 °C for the second.

`N#Cc1ccc(C=Cc2ccccn2)cc1` and `CC=Cc1cccc(C(=O)C=Cc2ccccc2)c1O` cannot be ordered by melting point: 98 °C for the first, 95 to 98 °C for the second.

First: O=C(Nc1ccncc1)c1c(OCC2CC2)ccc2oc3ccccc3c12
Second: COc1ccccc1CNc1ccc2c(C(=N)c3ccc(F)cc3)cccc2n1
The melting point of the first is higher: 243 to 244 °C for the first, 155 °C for the second.

First: CSc1cc(SC)c(SC)cc1SC
Second: CC(C)c1cc2cc([N+](=O)[O-])ccc2o1
The melting point of the first is higher: 127 to 129 °C for the first, 73 °C for the second.

First: O=C(NC1C2CC3CC(C2)CC1C3)C1CCCCN1 (centres undefined)
Second: c1cc(C2CCCCC2)ccc1N=C1NCCCN1
The melting point of the first is lower: 112 to 114 °C for the first, 179 to 181 °C for the second.

First: CS(=O)c1cc(-c2ccc(C(F)(F)F)cc2)ccc1C#N (centres undefined)
Second: O=C(NN=Cc1ccccc1)c1ccc(C(F)(F)F)cc1
The melting point of the first is lower: 127 to 128 °C for the first, 216 to 217 °C for the second.

First: O=C(CCCCl)c1ccc2c(c1)Cc1cc(C(=O)CCCCl)ccc1O2
Second: COc1cc(C(=O)c2ccc(C(F)(F)F)cc2)cc([N+](=O)[O-])c1OC
The melting point of the first is higher: 131 to 132 °C for the first, 115 °C for the second.

First: CO/C(=C\C=C\c1cc2ccccc2s1)C(=O)NC1CC(C)(C)N(C)C(C)(C)C1
Second: CC(C)(C)ON=C1CCC(NC(=O)Oc2ccc([N+](=O)[O-])cc2)CC1 (centres undefined)
The melting point of the first is higher: 240 °C for the first, 132 °C for the second.

Compared with `COc1cc(Nc2nc(N3CCOCC3)nc(-n3c(C(F)F)nc4c(OC)cccc43)n2)ncn1`, `CS(=O)(=O)Nc1cccc(Nc2nc(NCc3ncc[nH]3)c3nc[nH]c3n2)c1` is lower in melting point: 256 to 259 °C for the first, 216 to 220 °C for the second.

Compared with `O=C1OCc2cc(C(F)(F)F)ccc21`, `O=Cc1cc(C(F)(F)F)ccc1Sc1ccccc1F` is higher in melting point: 71 to 72 °C for the first, 130 to 132 °C for the second.

First: O=C1NC(=O)C2(CC(O)c3ccc(F)cc32)N1 (centres undefined)
Second: CSC(N)=C(CCN1CCC(c2noc3cc(F)ccc23)CC1)[N+](=O)[O-]
The melting point of the first is higher: 209 to 211 °C for the first, 150 to 154 °C for the second.

Compared with `Cn1nc2c(N)nc3c(c2c1CCCCNC(=O)N1CCOCC1)CCCC3`, `Nc1nc2cccnc2c2c1nc(CCO)n2CC1(O)CCOCC1` is higher in melting point: 95 °C for the first, 226 to 227 °C for the second.

Compared with `O=c1c2c(oc3c1nnn3Cc1ccccc1)CCS2`, `CCOC(=O)c1nocc1Cn1nnnc1-c1cccc(Cl)c1Cl` is higher in melting point: 157 to 160 °C for the first, 161 to 163 °C for the second.

First: Cn1c(NCCCCCC(=O)O)c(NC=O)c(=O)n(C)c1=O
Second: CCOC(=O)c1cn(-c2nc(NC(C)(C)C)c(F)cc2F)c2c(F)c(F)c(F)cc2c1=O
The melting point of the first is lower: 152 to 153 °C for the first, 174 to 178 °C for the second.

First: CCOC(=O)C1(C(=O)OCC)CCC2(NCCc3cc(OC)c(OC)cc32)C(C2=NCCc3cc(OC)c(OC)cc32)C1 (centres undefined)
Second: CCOC(=O)c1c(-c2ccc(F)cc2)cc(-c2cccc3c2OCO3)nc1C(C)C
The melting point of the first is lower: 116 to 118 °C for the first, 148 to 150 °C for the second.

Compared with `Cc1ccc(C(=O)Nc2cc(-n3cncc3C)cc(C(F)(F)F)c2)cc1Nc1nccc(-c2cccnc2)n1`, `CCCc1nc2c(C)cc(-c3nc4ccccc4n3C)cc2n1Cc1ccc(-c2ccccc2NC(=O)C(F)(F)F)cc1` is lower in melting point: 231 to 233 °C for the first, 115 to 120 °C for the second.

First: COc1cc(NC2=C(Cl)C(=O)c3ccccc3C2=O)ccc1S(=O)(=O)Nc1cccc(C)c1
Second: Cc1oc(-c2ccccc2)nc1COc1ccc(COc2ncccc2CC#N)cc1
The melting point of the first is higher: 286 to 288 °C for the first, 149 to 150 °C for the second.

First: O=c1c2ccc(Cl)cc2[nH]c2c(O)nn(-c3ccc(O)c(Cl)c3)c(=O)c12
Second: Nc1c(-c2cc(Cl)ccc2O)c2cc(Cl)ccc2[nH]c1=O
The melting point of the first is higher: 350 to 353 °C for the first, 184 to 185 °C for the second.

Compared with `Oc1ccc(-c2ncc3ncc(-c4ccco4)cc3n2)cc1`, `O=C(C(=Cc1ccc([N+](=O)[O-])cc1)c1ccccc1)c1ccc(O)cc1` is lower in melting point: 261 to 263 °C for the first, 153 to 157 °C for the second.

First: Cc1c(SCC(=O)N2CCOC(CN(C)C)C2)ccnc1CSc1nc2ccccc2[nH]1 (centres undefined)
Second: O=c1[nH]c2ccccc2n1CC1CCCN(CC(O)C2COc3ccccc3O2)C1 (centres undefined)
The melting point of the first is higher: 160 °C for the first, 154 °C for the second.

First: O=C(NCc1ccc(OCCN2CCCC2)cc1)c1ccc2c(c1)OCO2
Second: CC(C)c1nn(-c2ccc(C(F)(F)F)cn2)cc1COc1cccc(CC(=O)O)c1
The melting point of the first is lower: 93.5 to 94.5 °C for the first, 114 to 115 °C for the second.

Compared with `O=C(O)C1CC(C(=O)O)C(C(=O)O)C1C(=O)O` (centres undefined), `O=C1NC2CCC(=O)N2[C@H]1CO` (some centres undefined) is lower in melting point: 186 °C for the first, 61 to 75 °C for the second.

First: CN(C(=O)Nc1nc(OCC(F)(F)F)cc(OCC(F)(F)F)n1)c1ccc(C(F)(F)F)s1
Second: CCC(OC)(c1cccc(OCc2ccc3c(-c4ccoc4)cc(C#N)cc3c2)c1)c1nccs1 (centres undefined)
The melting point of the first is lower: 99 to 101 °C for the first, 156 to 157 °C for the second.

Compound `Clc1cncc(Cl)c1CBr` has a melting point of 40 to 44 °C.
